# Where a name gives a salt, the structure may show the parent alone.
# Biological target: CK2A1 (CK2α/β) (Homo sapiens, UniProt P68400)
# Assay: CK2 kinase assay, CK2A1 (CK2α/β)
# Format: biochemical
# Settings: Table A; read-out: CK2A1 (CK2α/β) (IC50)
# CK2A1 (CK2α/β), sequence (P68400 whole entry, species assumed): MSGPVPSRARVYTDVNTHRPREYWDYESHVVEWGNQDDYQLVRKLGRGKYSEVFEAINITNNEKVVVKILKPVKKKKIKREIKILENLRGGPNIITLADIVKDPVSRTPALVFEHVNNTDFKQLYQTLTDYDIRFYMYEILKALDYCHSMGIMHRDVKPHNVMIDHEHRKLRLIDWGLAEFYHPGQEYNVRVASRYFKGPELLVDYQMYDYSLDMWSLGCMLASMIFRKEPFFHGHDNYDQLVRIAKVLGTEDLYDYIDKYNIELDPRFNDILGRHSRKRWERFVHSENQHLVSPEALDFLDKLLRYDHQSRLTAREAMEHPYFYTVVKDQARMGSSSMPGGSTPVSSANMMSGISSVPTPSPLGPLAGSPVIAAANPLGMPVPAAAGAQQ
# CK2A1 (CK2α/β), sequence (P67870 whole entry partner, species assumed): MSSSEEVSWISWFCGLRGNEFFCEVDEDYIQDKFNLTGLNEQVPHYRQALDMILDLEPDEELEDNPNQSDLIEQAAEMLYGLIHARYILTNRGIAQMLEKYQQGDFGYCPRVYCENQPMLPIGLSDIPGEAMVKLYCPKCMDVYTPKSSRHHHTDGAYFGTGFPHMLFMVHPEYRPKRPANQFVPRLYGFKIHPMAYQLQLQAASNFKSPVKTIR
row,Structure (SMILES),IC50 [nM]
1,"N#Cc1cc(CNCCN2CCOCC2)c(Cl)c(Nc2nc(NC3CC3)c3ncc(C#N)n3n2)c1 [Example 466, 2-{[2-chloro-5-cyano-3-({[2-(morpholin-4-yl)ethyl]amino}methyl)phenyl]amino}-4-(cyclopropylamino)imidazo[2,1-f][1,2,4]triazine-7-carbonitrile]",1.31
2,"COC(=O)N[C@H]1CCN(c2cc(C#N)cc(Nc3nc(NC4CC4)c4ncc(C#N)n4n3)c2Cl)CC1NCC(C)(C)O (stereo in doubt) [Example 755, methyl N-[(3S,4S)-1-(2-chloro-5-cyano-3-{[7-cyano-4-(cyclopropylamino)imidazo [2,1-f][1,2,4]triazin-2-yl]amino}phenyl)-3-[(2-hydroxy-2-methylpropyl)amino]piperidin-4-yl]carbamate]",2.7
3,"N#Cc1cnc2c(NC3CC3)nc(Nc3cc(C(F)F)cc(N4CCC(N5CC(F)C5)CC4)c3Cl)nn12 [Example 258, 2-((2-chloro-5-(difluoromethyl)-3-(4-(3-fluoro-1-azetidinyl)-1-piperidinyl)phenyl)amino)-4-(cyclopropylamino)imidazo[2,1-f][1,2,4]triazine-7-carbonitrile]",1.93
4,"CN1CCN(C2CN(c3cc(C(F)F)cc(Nc4nc(NC5CC5)c5ncc(C#N)n5n4)c3Cl)C2)CC1 [Example 278, 2-((2-chloro-5-(difluoromethyl)-3-(3-(4-methyl-1-piperazinyl)-1-azetidinyl)phenyl)amino)-4-(cyclopropylamino)imidazo[2,1-f][1,2,4]triazine-7-carbonitrile]",0.86
5,"CCNc1nc(Nc2cc(C#N)cc(C3CCN(CCOC)CC3)c2Cl)nn2c(C#N)cnc12 [Example 352, 2-((2-chloro-5-cyano-3-(1-(2-methoxyethyl)-4-piperidinyl)phenyl)amino)-4-(ethylamino)imidazo[2,1-f] [1,2,4]triazine-7-carbonitrile]",2.73
6,"CN1CC(NC2CCN(c3cc(C#N)cc(Nc4nc(NC5CC5)c5ncc(C#N)n5n4)c3Cl)CC2)CC1=O (racemic) [Example 116, (+/−) 2-((2-chloro-5-cyano-3-(4-((1-methyl-5-oxo-3-pyrrolidinyl)amino)-1-piperidinyl)phenyl)amino)-4-(cyclopropylamino)imidazo [2,1-f][1,2,4]triazine-7-carbonitrile]",0.68
7,"CCNc1nc(Nc2cc(C#N)cc(N3CCN(C4CN(C(=O)OC)C4)CC3)c2Cl)nn2c(C#N)cnc12 [Example 101, methyl 3-(4-(2-chloro-5-cyano-3-((7-cyano-4-(ethylamino)imidazo [2,1-f][1,2,4]triazin-2-yl)amino)phenyl)-1-piperazinyl)-1-azetidinecarboxylate]",1.27
8,"C[C@@H]1CC(CN2CCN(c3cc(C#N)cc(Nc4nc(NC5CC5)c5ncc(C#N)n5n4)c3Cl)CC2)O1 (stereo partly drawn) [Example 528, 2-((2-chloro-5-cyano-3-(4-(((4R)-4-methyloxetan-2-yl)methyl)piperazin-1-yl)phenyl)amino)-4-(cyclopropylamino)imidazo[2,1-f][1,2,4]triazine-7-carbonitrile]",0.4
9,"N#Cc1cc(Nc2nc(NC3CC3)c3ncc(C#N)n3n2)c(Cl)c(C2(O)COC2)c1 [Example 653, 2-((2-chloro-5-cyano-3-(3-hydroxyoxetan-3-yl)phenyl)amino)-4-(cyclopropylamino)imidazo[2,1-f][1,2,4]triazine-7-carbonitrile]",1.84
10,"N#Cc1cc(Nc2nc(NC3CC3)c3ncc(C#N)n3n2)c(Cl)c(N2CC[C@@H](N)C2)c1 [Example 46, (R)-2-(3-(3-aminopyrrrolidin-1-yl)-2-chloro-5-cyanophenylamino)-4-(cyclopropylamino)imidazo [1,2-f][1,2,4]triazine-7-carbonitrile]",1.31
11,"N#Cc1cc(Nc2nc(NC3CC3)c3ncc(C#N)n3n2)c(Cl)c(N2CCN(NCC(N)=O)CC2)c1 [Example 791, 2-((4-(2-chloro-5-cyano-3-((7-cyano-4-(cyclopropylamino)imidazo[2,1-f][1,2,4]triazin-2-yl)amino)phenyl)piperazin-1-yl)amino)acetamide]",1.52
12,"CCNc1nc(Nc2cc(C#N)cc(N3CC[C@@H](NC(=O)OCC)[C@H](O)C3)c2Cl)nn2c(C#N)cnc12 [Example 332, ethyl ((3R,4R)-1-(2-chloro-5-cyano-3-((7-cyano-4-(ethylamino)imidazo[2,1-f][1,2,4]triazin-2-yl)amino)phenyl)-3-hydroxypiperidin-4-yl)carbamate]",0.41
13,"C[N+]1(C)CCN(C2CN(c3cc(C#N)cc(Nc4nc(NC5CC5)c5ncc(C#N)n5n4)c3Cl)C2)CC1 [Example 170, 4-(1-(2-chloro-5-cyano-3-((7-cyano-4-(cyclopropylamino)imidazo [2,1-f][1,2,4]triazin-2-yl)amino)phenyl)-3-azetidinyl)-1,1-dimethylpiperazin-1-ium]",0.93
14,"N#Cc1cc(Nc2nc(NC3CC3)c3ncc(C#N)n3n2)c(Cl)c(C2CCN(CC3CC3)CC2)c1 [Example 215, 2-((2-chloro-5-cyano-3-(1-(cyclopropylmethyl)-4-piperidinyl)phenyl)amino)-4-(cyclopropylamino)imidazo[2,1-f][1,2,4]triazine-7-carbonitrile]",0.62
15,"COC(=O)N1CCC(N2CCN(c3cc(C#N)cc(Nc4nc(NC5CC5)c5ncc(C#N)n5n4)c3Cl)CC2)C1 (centres unmarked) [Example 591, methyl 3-[4-(2-chloro-5-cyano-3-{[7-cyano-4-(cyclopropylamino)imidazo [2,1-f][1,2,4]triazine-2-yl]amino}phenyl)piperazin-1-yl]pyrrolidine-1-carboxylate]",3.82
16,"CC1CN(C2CCN(c3cc(C#N)cc(Nc4nc(NC5CC5)c5ncc(C#N)n5n4)c3Cl)CC2)CC(C)O1 (racemic) [Example 109, (+/−) 2-((2-chloro-5-cyano-3-(4-(2,6-dimethyl-4-morpholinyl)-1-piperidinyl)phenyl)amino)-4-(cyclopropylamino)imidazo [2,1-f][1,2,4]triazine-7-carbonitrile]",4.09
17,"CN1CCN(C(CO)CCc2cc(C#N)cc(Nc3nc(NC4CC4)c4ncc(C#N)n4n3)c2Cl)CC1 (centres unmarked) [Example 723, 2-({2-chloro-5-cyano-3-[4-hydroxy-3-(4-methylpiperazin-1-yl)butyl]phenyl}amino)-4-(cyclopropylamino)imidazo [2,1-f][1,2,4]triazine-7-carbonitrile]",1.92
18,"CN1CC2(CCN(c3cc(C#N)cc(Nc4nc(NC5CC5)c5ncc(C#N)n5n4)c3Cl)CC2)OC1=O [Example 780, 2-((2-chloro-5-cyano-3-(3-methyl-2-oxo-1-oxa-3,8-diazaspiro[4.5]decan-8-yl)phenyl)amino)-4-(cyclopropylamino)imidazo[2,1-f][1,2,4]triazine-7-carbonitrile]",0.67
19,"CCNc1nc(Nc2cc(C#N)cc(N3CCC4(CCN(C)C4=O)CC3)c2Cl)nn2c(C#N)cnc12 (racemic) [Example 784, (+/−)-2-((2-chloro-5-cyano-3-(2-methyl-1-oxo-2,8-diazaspiro[4.5]decan-8-yl)phenyl)amino)-4-(ethylamino)imidazo[2,1-f][1,2,4]triazine-7-carbonitrile]",1.88
20,"CCNc1nc(Nc2cc(C#N)cc(N3CC[C@@H](NC(=O)OC)C(N(C)C[C@H](O)CO)C3)c2Cl)nn2c(C#N)cnc12 (stereo partly drawn) [Example 772, methyl N-[(4R)-1-(2-chloro-5-cyano-3-{[7-cyano-4-(ethylamino)imidazo[2,1-f][1,2,4]triazin-2-yl]amino}phenyl)-3-{[(2S)-2,3-dihydroxypropyl](methyl)amino}piperidin-4-yl]carbamate]",14.1
21,"CC(C)(O)C1CN(C2CN(c3cc(C#N)cc(Nc4nc(NC5CC5)c5ncc(C#N)n5n4)c3Cl)C2)CCO1 (racemic) [Example 165, (+/−)2-(2-chloro-5-cyano-3-(3-(2-(2-hydroxypropan-2-yl)morpholino)azetidin-1-yl)phenylamino)-4-(cyclopropylamino)imidazo [1,2-f][1,2,4]triazine-7-carbonitrile]",0.54
22,"CCNc1nc(Nc2cc(C#N)cc(N3CC[C@@H](NC(=O)OC)[C@H](OC(=O)[C@@H](N)Cc4cnc[nH]4)C3)c2Cl)nn2c(C#N)cnc12 [Example 809, (S)-(3R,4R)-1-(2-chloro-5-cyano-3-((7-cyano-4-(ethylamino)imidazo[2,1-f][1,2,4]triazin-2-yl)amino)phenyl)-4-((methoxycarbonyl)amino)piperidin-3-yl 2-amino-3-(1H-imidazol-5-yl)propanoate dihydrochloride]",1
23,"CC(=O)N1CCC2(CCN(c3cc(C#N)cc(Nc4nc(NC5CC5)c5ncc(C#N)n5n4)c3Cl)CC2)C1 [Example 786, 2-((3-(2-acetyl-2,8-diazaspiro[4.5]decan-8-yl)-2-chloro-5-cyanophenyl)amino)-4-(cyclopropylamino)imidazo[2,1-f][1,2,4]triazine-7-carbonitrile]",1.41
24,"CCNc1nc(Nc2cc(C#N)cc(N3CC[C@@H](NC(=O)OC)[C@H](OC(=O)CC[C@H](N)C(=O)OC)C3)c2Cl)nn2c(C#N)cnc12 [Example 814, (S)-5-((3R,4R)-1-(2-chloro-5-cyano-3-((7-cyano-4-(ethylamino)imidazo[2,1-f][1,2,4]triazin-2-yl)amino)phenyl)-4-((methoxycarbonyl)amino)piperidin-3-yl) 1-methyl 2-aminopentanedioate hydrochloride]",24.9
25,"CC(C)(O)CN1CCC2CN(c3cc(C#N)cc(Nc4nc(NC5CC5)c5ncc(C#N)n5n4)c3Cl)CCC21 (centres unmarked) [Example 450, 2-((2-chloro-5-cyano-3-(1-(2-hydroxy-2-methylpropyl)hexahydro-1H-pyrrolo[3,2-c]pyridin-5(6H)-yl)phenyl)amino)-4-(cyclopropylamino)imidazo[2,1-f][1,2,4]triazine-7-carbonitrile]",1.5
26,"N#Cc1cc(Nc2nc(NC3CC3)c3ncc(C#N)n3n2)c(Cl)c(N2CCOC(CO)C2)c1 (racemic) [Example 697, (+/−)-2-((2-chloro-5-cyano-3-(2-(hydroxymethyl)morpholino)phenyl)amino)-4-(cyclopropylamino)imidazo[2,1-f][1,2,4]triazine-7-carbonitrile]",0.2
